Test results taken from publication PMC8886686 (Journal of Inorganic Biochemistry, 2022).

Columns and labels:
SARS-CoV-2 3CLpro [1] = target: T1, SARS-CoV-2 3CLpro (Severe acute respiratory syndrome coronavirus 2, UniProt P0DTD1); type: binding
SARS-CoV-2 PLpro [2] = target: T2, SARS-CoV-2 PLpro (Severe acute respiratory syndrome coronavirus 2, UniProt P0DTD1); type: binding; details: 50 μM metal ion
SARS-CoV-2 3CLpro [3] = target: T1, SARS-CoV-2 3CLpro; type: biochemical
SARS-CoV-2 WT-3CLpro = SARS-CoV-2 WT-3CLpro (Severe acute respiratory syndrome coronavirus 2, UniProt P0DTD1); assay: Zn2+ content determination by ICP-MS, 3CLpro; type: binding
SARS-CoV-2 PLpro [4] = target: T2, SARS-CoV-2 PLpro; assay: PLpro deubiquitination assay with ubiquitin-AMC substrate; type: biochemical
SARS-CoV-2 3CLpro [5] = target: T1, SARS-CoV-2 3CLpro; type: binding; details: 50 μM metal ion
SARS-CoV-2 WT-PLpro = SARS-CoV-2 WT-PLpro (Severe acute respiratory syndrome coronavirus 2, UniProt P0DTD1); assay: Zn2+ content determination by ICP-MS, PLpro; type: binding
SARS-CoV-2 PLpro [6] = target: T2, SARS-CoV-2 PLpro; type: biochemical; details: 1 μM PLpro
SARS-CoV-2 PLpro [7] = target: T2, SARS-CoV-2 PLpro; type: binding

Question: Which “Zn2+ bound to 3CLpro monomer (ITC stoichiometry)” value (SARS-CoV-2 3CLpro [1]) does the source give for O=C([O-])[C@H](O)[C@@H](O)[C@H](O)[C@H](O)CO.O=C([O-])[C@H](O)[C@@H](O)[C@H](O)[C@H](O)CO.[Zn+2] [Zn^2+, zinc gluconate] here?
Answer: The value was 0.79 ± 0.01 eq.

Question: What about the Kd (SARS-CoV-2 3CLpro [1]; read-out: dissociation constant (KD), 3CLpro (monomer)) of the same compound?
Answer: Its Kd is 4080 ± 660 nM.

Question: And the “effect on melting temperature of PLpro” value (SARS-CoV-2 PLpro [2])?
Answer: The value was “most potent metal ion to decrease the melting temperatures”.

Question: What about the “inhibition of the proteolytic activity of 3CLpro” value (SARS-CoV-2 3CLpro [3]; 50 μM metal ion, 0.5 μM 3CLpro) of the same compound?
Answer: Its value is 97.6%.

Question: What about the IC50 (SARS-CoV-2 3CLpro [3]; read-out: IC50, 3CLpro activity, 0.5 μM WT-3CLpro, 10 μM substrate) of the same compound?
Answer: The IC50 was 540 ± 40 nM.

Question: What about the “Zn2+ binding capacity of 3CLpro monomer (ICP-MS)” value (SARS-CoV-2 WT-3CLpro) of the same compound?
Answer: The value was 1.24 ± 0.01 eq.

Question: What about the “inhibition of PLpro deubiquitination activity” value (SARS-CoV-2 PLpro [4]) of the same compound?
Answer: Its value is 95.7%.

Question: What about the “effect on melting temperature of 3CLpro” value (SARS-CoV-2 3CLpro [5]) of the same compound?
Answer: Its value is “most potent metal ion to decrease the melting temperatures”.

Question: And the “Zn2+ binding capacity per PLpro monomer (ICP-MS)” value (SARS-CoV-2 WT-PLpro)?
Answer: Its value is 1.90 ± 0.01 eq.

Question: What about the “inhibition of the proteolytic activity of PLpro” value (SARS-CoV-2 PLpro [6]; 50 μM metal ion) of the same compound?
Answer: The value was 98%.

Question: What about the IC50 (SARS-CoV-2 PLpro [6]; read-out: IC50, PLpro activity, 20 μM peptide substrate) of the same compound?
Answer: The IC50 was 530 ± 40 nM.

Question: What about the “Zn2+ bound to PLpro (ITC stoichiometry)” value (SARS-CoV-2 PLpro [7]) of the same compound?
Answer: The value was 1.23 ± 0.01 eq.

Question: What about the Kd (SARS-CoV-2 PLpro [7]; read-out: dissociation constant (KD), PLpro) of the same compound?
Answer: Its Kd is 2170 ± 360 nM.
